One assay addresses T1, human PLK4 (Homo sapiens, UniProt O00444).
T1 construct: amino terminal GST fusion of residues 1-391 of human PLK4; made in house; host or cells: E. coli
T1 sequence (O00444 1-391): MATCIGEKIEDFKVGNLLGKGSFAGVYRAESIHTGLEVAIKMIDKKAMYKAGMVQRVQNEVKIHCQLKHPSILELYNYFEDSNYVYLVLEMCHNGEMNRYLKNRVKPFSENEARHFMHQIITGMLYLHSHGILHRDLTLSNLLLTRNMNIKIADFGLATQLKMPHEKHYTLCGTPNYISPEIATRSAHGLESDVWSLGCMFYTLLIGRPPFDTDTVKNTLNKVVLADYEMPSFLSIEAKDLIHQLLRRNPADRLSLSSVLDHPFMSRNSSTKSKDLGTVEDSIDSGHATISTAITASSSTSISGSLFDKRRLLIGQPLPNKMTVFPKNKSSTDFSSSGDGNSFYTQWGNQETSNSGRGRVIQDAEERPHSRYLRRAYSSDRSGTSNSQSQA
As to the kind of experiment: PLK4 inhibition assay (indirect ELISA). It counts as biochemical. Particulars: GST-PLK4 4 nM, 15 μM ATP; read-out: IC50 Ranges PLK4. In short, it runs like this: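 Compounds were tested either at a single 10 μM dose or across 10-point titrations (typically 0.5 to 0.001 μM), preincubated 15 min with 4 nM GST-PLK4 (human 1-391, dephosphorylated) before 15 μM ATP was added. MBP substrate phosphorylation over 30 min, pH 7.5 HEPES/MgCl2 buffer, read by HRP/TMB ELISA (450 nm). % inhibition vs. high-activity control; IC50 by logistic fit.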
On the technique in general: In an ELISA, binding on a coated surface is turned into a signal by an enzyme label.

For assay [1], the system named is MDA-MB-468 breast cancer cells. As to the kind of experiment: Cell growth inhibition, Sulforhodamine B assay, MDA-MB-468. It is filed as cell-based. Particulars: Homo sapiens, 120 h, 5 days culture, SRB assay, read-out: Cell Line GI50 Range MDA-MB-468. In general terms: In SRB staining, fixed cells bind dye roughly in proportion to their protein.
In another assay the target is T2, human TTK (Homo sapiens, UniProt P33981).
T2 construct: amino terminal GST fusion of full length human TTK; purchased Invitrogen
T2 sequence (P33981 1-857): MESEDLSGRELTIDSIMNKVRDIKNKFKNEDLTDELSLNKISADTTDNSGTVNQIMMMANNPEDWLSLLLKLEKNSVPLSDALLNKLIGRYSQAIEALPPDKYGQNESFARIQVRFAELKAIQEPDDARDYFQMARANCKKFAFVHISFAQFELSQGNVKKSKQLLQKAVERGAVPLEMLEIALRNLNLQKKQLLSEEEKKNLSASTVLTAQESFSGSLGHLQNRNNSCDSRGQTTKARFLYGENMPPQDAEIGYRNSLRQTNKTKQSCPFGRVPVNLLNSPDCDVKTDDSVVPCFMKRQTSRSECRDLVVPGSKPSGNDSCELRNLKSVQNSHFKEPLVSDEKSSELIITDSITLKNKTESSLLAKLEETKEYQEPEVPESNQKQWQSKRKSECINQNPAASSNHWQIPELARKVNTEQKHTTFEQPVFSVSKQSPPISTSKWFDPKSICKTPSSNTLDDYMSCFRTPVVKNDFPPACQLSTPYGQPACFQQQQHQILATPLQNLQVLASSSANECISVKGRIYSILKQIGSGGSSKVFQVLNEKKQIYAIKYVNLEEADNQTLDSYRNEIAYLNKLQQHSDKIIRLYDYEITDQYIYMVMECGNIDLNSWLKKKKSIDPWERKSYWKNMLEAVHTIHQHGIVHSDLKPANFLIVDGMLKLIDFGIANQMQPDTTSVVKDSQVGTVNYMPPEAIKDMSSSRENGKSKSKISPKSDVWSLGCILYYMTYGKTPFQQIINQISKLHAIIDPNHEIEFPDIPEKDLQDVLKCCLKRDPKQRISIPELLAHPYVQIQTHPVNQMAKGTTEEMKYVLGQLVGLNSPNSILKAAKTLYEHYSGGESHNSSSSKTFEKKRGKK
As to the kind of experiment: TTK inhibition assay (indirect ELISA). It counts as biochemical. The note with it: GST-TTK 0.68 nM, 16 μM ATP; read-out: IC50 Ranges TTK.

The test system of assay [2] is PA-1 ovarian cancer cells. As to the kind of experiment: Cell growth inhibition, Sulforhodamine B assay, PA-1. It counts as cell-based. The note with it: 120 h, 5 days culture, SRB assay, read-out: Cell Line GI50 Range PA-1.
For assay [3], the system named is HCT116 colon cancer cells. As to the kind of experiment: Cell growth inhibition, Sulforhodamine B assay, HCT116. It counts as cell-based. Particulars: Homo sapiens, HCT-116, 120 h, 5 days culture, SRB assay, read-out: Cell Line GI50 Range HCT116.
A further assay deals with T3, Aurora B (Homo sapiens, UniProt Q96GD4).
T3 construct: purchased Invitrogen PV3970
T3 sequence (Q96GD4 whole entry): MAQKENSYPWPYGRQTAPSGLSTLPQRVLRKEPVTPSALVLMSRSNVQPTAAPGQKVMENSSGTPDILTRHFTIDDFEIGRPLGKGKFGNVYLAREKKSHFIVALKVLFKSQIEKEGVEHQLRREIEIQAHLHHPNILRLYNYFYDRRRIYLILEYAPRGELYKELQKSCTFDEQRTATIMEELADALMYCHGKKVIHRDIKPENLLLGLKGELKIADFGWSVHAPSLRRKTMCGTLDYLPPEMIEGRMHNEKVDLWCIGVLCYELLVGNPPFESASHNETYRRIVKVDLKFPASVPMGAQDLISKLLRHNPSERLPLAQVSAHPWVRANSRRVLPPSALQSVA
As to the kind of experiment: Aurora B inhibition assay (Z-Lyte). It counts as biochemical. Particulars: 28 nM Aurora B, 128 μM ATP; read-out: IC50 Ranges Aurora B. The method, then:
Aurora B inhibition was determined using the Z-Lyte assay kit from Invitrogen. The assay was performed using the recommended manufacturer's instructions with 128 μM ATP and 28 nM Aurora B (Invitrogen cat #PV3970). The % inhibition values were determined according to the manufacturer's directions and IC50 values were obtained using a non-linear 4 point logistic curve fit (XLfit4, IDBS)

The test system of assay [4] is MDA-MB-231 breast cancer cells. As to the kind of experiment: Cell growth inhibition, Sulforhodamine B assay, MDA-MB-231. It is filed as cell-based. The note with it: Homo sapiens, 120 h, 5 days culture, SRB assay, read-out: Cell Line GI50 Range MDA-MB-231.
Assay [5] concerns OVCAR-3 ovarian cancer cells. As to the kind of experiment: Cell growth inhibition, Sulforhodamine B assay, OVCAR-3. It is filed as cell-based. The note with it: Homo sapiens, 120 h, 5 days culture, SRB assay, read-out: Cell Line GI50 Range OVCAR-3.
The next assay has as its system HT29 colon cancer cells. As to the kind of experiment: Cell growth inhibition, Sulforhodamine B assay, HT29. It is filed as cell-based. Particulars: Homo sapiens, HT-29, 120 h, 5 days culture, SRB assay, read-out: Cell Line GI50 Range HT29.

In general, IC50 refers to the point on the concentration scale where inhibition reaches its midpoint. One may read the GI50 as the concentration at which growth is held to half of that of the control. For the compound `O=C(Nc1ccc2[nH]nc(-c3ccc(N4CCC(O)CC4)cc3)c2c1)C(c1ccsc1)N1CCC1` (stereo not shown) [Example A200, 2-(azetidin-1-yl)-N-(3-(4-(4-hydroxypiperidin-1-yl)phenyl)-1H-indazol-5-yl)-2-(thiophen-3-yl)acetamide], the IC50 at human PLK4, at human TTK and on Aurora B was not above 5 µM in each case. The concentration for 50% growth inhibition (GI50) in assay [1], in assay [2] and in assay [3] was not above 5 µM throughout.

Regarding `COc1cc(-c2n[nH]c3ccc(C(=O)NC(c4ccccc4)C4CC4)cc23)ccc1OC1CCN(C=O)CC1` (stereo not shown) [Example A205, N-(cyclopropyl(phenyl)methyl)-3-(4-((1-formylpiperidin-4-yl)oxy)-3-methoxyphenyl)-1H-indazole-5-carboxamide], the IC50 at human PLK4, at human TTK and at Aurora B was not above 5 µM throughout. Further, the GI50 in assay [1], in assay [2] and in [3] was not above 5 µM in each case.

Regarding `O=C(N[C@@H](c1ccccn1)C1CC1)c1ccc2[nH]nc(-c3ccc(OC4CCN(C5COC5)CC4)cc3)c2c1` [Example A196, (R)—N-(cyclopropyl(pyridin-2-yl)methyl)-3-(4-((1-(oxetan-3-yl)piperidin-4-yl)oxy)phenyl)-1H-indazole-5-carboxamide], the IC50 on human PLK4, on human TTK and on Aurora B was not above 5 µM throughout. The concentration for 50% growth inhibition (GI50) in assay [1], in [2] and in [3] was not above 5 µM in each case.

In the case of `CC[C@@H](NC(=O)c1ccc2[nH]nc(-c3ccc(OC4CCN(C)CC4)cc3)c2c1)c1cccs1` [Example A63, (R)-3-(4-((1-methylpiperidin-4-yl)oxy)phenyl)-N-(1-(thiophen-2-yl)propyl)-1H-indazole-5-carboxamide], the concentration for half-maximal inhibition (IC50) on human PLK4, on human TTK and at Aurora B was not above 5 µM in each case. Also, the GI50 (in [4]; in assay [1]; in assay [5]; in [3]; in the assay with HT29 colon cancer cells) was not above 5 µM in each case.

As for `O=C(Nc1ccc2[nH]nc(-c3ccc(OC4CCNCC4)cc3)c2c1)C(c1ccsc1)N1CCCC1` (stereo not shown) [Example A28, N-(3-(4-(piperidin-4-yloxy)phenyl)-1H-indazol-5-yl)-2-(pyrrolidin-1-yl)-2-(thiophen-3-yl)acetamide], the IC50 at human PLK4, at human TTK and at Aurora B was not above 5 µM in each case. Besides, the concentration for 50% growth inhibition (GI50) in assay [4] is not above 5 µM; in assay [1] it was not above 5 µM; in assay [5], 5 to 20 µM; in assay [3], not above 5 µM; with HT29 colon cancer cells it was not above 5 µM.

Regarding `COc1cc(-c2n[nH]c3ccc(C(=O)NC(c4ccccn4)C4CC4)cc23)ccc1OC1CCN(C2COC2)CC1` (stereo not shown) [Example A195], the IC50 at human PLK4, on human TTK and at Aurora B was not above 5 µM each time. In addition, the GI50 in assay [1], in assay [2] and in [3] was not above 5 µM throughout.

`CC(C)N1CCC(Oc2ccc(-c3n[nH]c4ccc(NC(=O)C(c5ccsc5)N5CCCC5)cc34)cc2)CC1` (stereo not shown) [Example A30, N-(3-(4-((1-isopropylpiperidin-4-yl)oxy)phenyl)-1H-indazol-5-yl)-2-(pyrrolidin-1-yl)-2-(thiophen-3-yl)acetamide]: the half-maximal inhibitory concentration (IC50) at human PLK4, on human TTK and at Aurora B was not above 5 µM each time. Further, the GI50 (in [4]; in [1]; in assay [5]; in assay [3]; in the assay on HT29 colon cancer cells) was not above 5 µM in each case.

Take `O=C(Nc1ccc2[nH]nc(-c3ccc(N4CCOCC4)cc3)c2c1)C(c1ccsc1)N1CCCCC1` (stereo not shown) [Example A32, N-(3-(4-morpholinophenyl)-1H-indazol-5-yl)-2-(piperidin-1-yl)-2-(thiophen-3-yl)acetamide]: the IC50 at human PLK4, on human TTK and on Aurora B was not above 5 µM each time. Further, the 50% growth inhibitory concentration (GI50) in [4] is 20 to 50 µM; in assay [1], not above 5 µM; in assay [5] it was 5 to 20 µM; in assay [3] it was not above 5 µM; in the assay on HT29 colon cancer cells it was not above 5 µM.

`CN1CCC(Oc2ccc(-c3n[nH]c4ccc(NC(=O)C(c5ccsc5)N5CCCC5)cc34)cc2Cl)CC1` (stereo not shown) [Example A57, N-(3-(3-chloro-4-((1-methylpiperidin-4-yl)oxy)phenyl)-1H-indazol-5-yl)-2-(pyrrolidin-1-yl)-2-(thiophen-3-yl)acetamide]: the IC50 at human PLK4, on human TTK and on Aurora B was not above 5 µM in each case. Moreover, the GI50 (in [4]; in assay [1]; in assay [5]; in [3]; with HT29 colon cancer cells) was not above 5 µM each time.

Take `Cc1cc(C)c(NC(=O)Nc2ccc3[nH]nc(-c4ccc(OC5CCN(C)CC5)cc4)c3c2)c(Cl)c1` [Example A77, 1-(2-chloro-4,6-dimethylphenyl)-3-(3-(4-((1-methylpiperidin-4-yl)oxy)phenyl)-1H-indazol-5-yl)urea]: the IC50 at human PLK4, at human TTK and at Aurora B was not above 5 µM throughout. In addition, the 50% growth inhibitory concentration (GI50) (in [4]; in assay [1]; in assay [5]; in assay [3]; in the assay on HT29 colon cancer cells) was not above 5 µM in each case.

As for `CC[C@@H](NC(=O)c1ccc2[nH]nc(-c3ccc(N4CCOCC4)cc3)c2c1)c1cccs1` [Example A58, (R)-3-(4-morpholinophenyl)-N-(1-(thiophen-2-yl)propyl)-1H-indazole-5-carboxamide], the IC50 on human PLK4, at human TTK and on Aurora B was not above 5 µM each time. Further, the GI50 (in assay [4]; in assay [1]; in [5]; in [3]; in the assay with HT29 colon cancer cells) was not above 5 µM throughout.

For the compound `CN1CCC(Oc2ccc(-c3n[nH]c4ccc(NC(=O)C(c5ccsc5)C5CCCC5)cc34)cc2)CC1` (stereo not shown) [Example A36, 2-cyclopentyl-N-(3-(4-((1-methylpiperidin-4-yl)oxy)phenyl)-1H-indazol-5-yl)-2-(thiophen-3-yl)acetamide], the half-inhibitory concentration (IC50) at human PLK4, at human TTK and at Aurora B was not above 5 µM each time. Besides, the GI50 (in assay [4]; in assay [1]; in assay [5]; in assay [3]; in the assay with HT29 colon cancer cells) was not above 5 µM each time.

The record behind these values is patent US20140051679A1, “KINASE INHIBITORS AND METHOD OF TREATING CANCER WITH SAME” (UNIVERISTY HEALTH NETWORKS, priority 2011, published 2014).
